How the values were obtained:
[1] = test system: erythrocytes infected with the 3D7 strain; test: FACS Killing Rate Assay; assay type: cell-based, Plasmodium falciparum; parameters: % Survival at 0 h: concentration or dose not given beside the values; conditions: for % Survival (24 h) / % Survival (48 h) / % Survival at 0 h: 3D7; for % Survival (24 h): 24 h treatment at 10× IC50; for % Survival (24 h) / % Survival (48 h): mean ± SD of two measurements; for % Survival (48 h): 48 h treatment at 10× IC50; for % Survival at 0 h: treatment time 0 h; for killing profile: in words, compared with chloroquine, pyrimethamine, atovaquone, artesunate
Protocol: After treatment, the compound is removed and the culture is diluted (⅓^rd dilution) using fresh erythrocytes (2% hematocrit) previously labeled with CFDA-SE (carboxylfluorescein diacetate succinimidyl ester, Life Technologies). […] Samples were analyzed using the Attune N×T software package.

[2] = test system: P. falciparum 3D7 gametocytes; test: Gametocyte EC50 determination; assay type: cell-based; conditions: Plasmodium falciparum
Protocol: Asexual cultures of P. falciparum 3D7 parasites were used to seed gametocyte cultures at 1% parasitemia and 4% hematocrit as previously described. Culture medium (RPMI medium with 25 mM HEPES, 50 mg/L hypoxanthine, 2 g/L sodium bicarbonate and 10% human serum) was replaced daily for at least 14 day with all solutions, pipettes and work surfaces treated at 37° C. Typical cultures follow the pattern of asexual parasitemia rising to a peak and crashing at days 4-5, with stage II gametocytes visible at day 7, stage III visible at day 9, stage IV visible at day 11, and stage V visible at day 14 with high levels of exflagellation.
To determine EC50 values, the number of exflagellation centers per field, mean oocyst intensity and prevalence of infection were normalized to the respective DMSO treated control and % inhibition calculated. Tested compounds were prepared as a DMSO solutions from 25 μM to 0.026 μM across 22 points. Percentage inhibition data obtained from each individual parameter was fitted to a four-parameter logistic equation with variable slope using GraphPad Prism 6.07 for which compound concentrations were first transformed to their respective log10 values. The data were then fitted using these transformed values without defining constraints.

HepG2-A16-CD81EGFP cells = test: HepG2 Cytotoxicity Bioluminescence Assay; assay type: cell-based; conditions: Homo sapiens, 48 h, mean ± SD of two measurements
Protocol: HepG2-A16-CD81EGFP cells which were stably transformed to express a GFP-CD81 fusion protein were cultured at 37° C. and 5% CO2 in DMEM supplemented with 10% FBS, 0.29 mg/mL glutamine, 100 units penicillin and 100 μg/mL of streptomycin (Invitrogen, Carlsbad, USA). […] 50 nL of compound in DMSO (0.5% final DMSO concentration per well) was transferred with an Acoustic Transfer System (Biosero) in to the assay plates (50 μM final concentration). […] To maintain similar conditions, the 5 μL additional volume was accomplished by using the same screening media with no infected sporozoites. No centrifugation was performed using only the media addition. […] The HepG2 cytotoxicity was assessed to determine the number of viable cells in culture based on quantitation of the ATP present, which signals the presence of metabolically active cells. […] Immediately after the addition of the CellTiterGlo, the plates were read by an EnVision Multilabel plate reader (PerkinElmer) using a luminescence protocol. IC50 values were obtained using measured bioluminescence intensity and a non-linear variable slope protocol in CDD Vault, an online collaborative drug discovery informatics program.

[3] = test system: P. berghei luciferase sporozoites in HepG2-A16-CD81EGFP cells; test: Plasmodium Berghei Luciferase Liver Stage Bioluminescence Assay; assay type: cell-based; conditions: in words
Protocol: HepG2-A16-CD81EGFP cells which were stably transformed to express a GFP-CD81 fusion protein were cultured at 37° C. and 5% CO2 in DMEM supplemented with 10% FBS, 0.29 mg/mL glutamine, 100 units penicillin and 100 μg/mL of streptomycin (Invitrogen, Carlsbad, USA). […] Freshly dissected P. berghei luciferase sporozoites were re-suspended in media and their concentration adjusted to 200 sporozoites/μL. […] After incubation, the plates were assessed by testing the luciferase expression. This was done by removing the media by spinning the inverted plates at 150 g for 1 minute. 2 μL of BrightGlo (Promega) was dispensed with the MicroFlo liquid handler (BioTek) into the emptied 1536 wells. The plates were held for at least 2 minutes with the Bright-Glo reagent in the wells (per manufacturer instructions) for the process to occur. The plates were then loaded and read by an EnVision Multilabel plate reader (PerkinElmer) using a luminescence protocol. IC50 values were obtained using measured bioluminescence intensity and a non-linear variable slope protocol in CDD Vault, an online collaborative drug discovery informatics program.

SMILES | melting point [°C] | % Survival at 0 h [1] [%] | also measured
Cc1nn(-c2ccccc2)c2nc(-c3ccc(Cl)cc3)c(C#N)c(-c3ccccc3O)c12 [Compound 32, 6-(4-chlorophenyl)-4-(2-hydroxyphenyl)-3-methyl-1-phenyl-1H-pyrazolo[3,4-b]pyridine-5-carbonitrile] | 281 to 282 |  | 
CCc1ccc(-c2nc3c(c(C)nn3-c3ccccc3)c(-c3ccccc3C(F)(F)F)c2C#N)cc1 [Compound 15, 6-(4-Ethylphenyl)-3-methyl-1-phenyl-4-[2-(trifluoromethyl)phenyl]-1H-pyrazolo[3,4-b]pyridine-5-carbonitrile] | 193 to 195 |  | 
CCN(CC)CCCC(C)Nc1ccnc2cc(Cl)ccc12 (stereo not drawn) [Chloroquine] |  | 100 | % Survival (24 h) [1]: 18.69 ± 7.34%; % Survival (48 h) [1]: 9.21 ± 2.08%
CCc1ccc(-c2nc3c(c(C)nn3-c3ccccc3)c(-c3ccccc3Br)c2C#N)cc1 [Compound 9, 4-(2-Bromophenyl)-6-(4-ethylphenyl)-3-methyl-1-phenyl-1H-pyrazolo[3,4-b]pyridine-5-carbonitrile] | 208 to 209 |  | 
CCc1ccc(-c2nc3c(c(C)nn3-c3ccccc3)c(-c3ccccc3I)c2C#N)cc1 [Compound 8, 6-(4-Ethylphenyl)-4-(2-iodophenyl)-3-methyl-1-phenyl-1H-pyrazolo[3,4-b]pyridine-5-carbonitrile] | 205 to 207 |  | 
Cc1nn(-c2ccccc2)c2nc(-c3ccc(C#N)cc3)c(C#N)c(-c3ccccc3O)c12 [Compound 34, 6-(4-cyanophenyl)-4-(2-hydroxyphenyl)-3-methyl-1-phenyl-1H-pyrazolo[3,4-b]pyridine-5-carbonitrile] | 165 to 166 |  | 
CCc1nc(N)nc(N)c1-c1ccc(Cl)cc1 [Pyrimethamine] |  | 100 | % Survival (24 h) [1]: 56.37 ± 2.55%; % Survival (48 h) [1]: 16.02 ± 4.36%
CCc1ccc(-c2nc3c(c(C)nn3-c3ccccc3)c(-c3ccccc3C)c2C#N)cc1 [Compound 12, 6-(4-Ethylphenyl)-3-methyl-4-(2-methylphenyl)-1-phenyl-1H-pyrazolo[3,4-b]pyridine-5-carbonitrile] | 203 to 204 |  | 
Cc1nn(-c2ccccc2)c2nc(-c3ccc(I)cc3)c(C#N)c(-c3ccccc3O)c12 [Compound 33, 4-(2-hydroxyphenyl)-6-(4-iodophenyl)-3-methyl-1-phenyl-1H-pyrazolo[3,4-b]pyridine-5-carbonitrile] | 289 to 291 |  | 
Cc1nn(-c2ccccc2)c2nc(-c3ccc(C(C)(C)C)cc3)c(C#N)c(-c3ccccc3O)c12 [Compound 27, 6-(4-tert-butylphenyl)-4-(2-hydroxyphenyl)-3-methyl-1-phenyl-1H-pyrazolo[3,4-b]pyridine-5-carbonitrile] |  | 100 | EC50 [2]: > 25 µM; killing profile [1]: moderate killing profile
O=C1C(O)=C([C@H]2CC[C@H](c3ccc(Cl)cc3)CC2)C(=O)c2ccccc21 [Atovaquone] |  | 100 | % Survival (24 h) [1]: 78.96 ± 3.89%; % Survival (48 h) [1]: 39.89 ± 4.37%
Cc1nn(-c2ccccc2)c2nc(-c3ccc(F)cc3)c(C#N)c(-c3ccccc3O)c12 [Compound 31, 6-(4-fluorophenyl)-4-(2-hydroxyphenyl)-3-methyl-1-phenyl-1H-pyrazolo[3,4-b]pyridine-5-carbonitrile] | 234 to 236 |  | 
CCc1ccc(-c2nc3c(c(C)nn3-c3ccccc3)c(-c3ccccc3F)c2C#N)cc1 [Compound 11, 6-(4-Ethylphenyl)-4-(2-fluorophenyl)-3-methyl-1-phenyl-1H-pyrazolo[3,4-b]pyridine-5-carbonitrile] | 197 to 199 |  | 
CCc1ccc(-c2nc3c(c(C)nn3-c3ccccc3)c(-c3ccccc3OC(F)(F)F)c2C#N)cc1 [Compound 17, 6-(4-Ethylphenyl)-3-methyl-1-phenyl-4-[2-(trifluoromethoxy)phenyl]-1H-pyrazolo[3,4-b]pyridine-5-carbonitrile] |  |  | EC50 (HepG2-A16-CD81EGFP cells): > 25 µM; potency against the liver stage of the parasite [3]: sub-micromolar potency; EC50 [2]: > 25 µM
Cc1nn(-c2ccccc2)c2nc(-c3ccc(C(F)(F)F)cc3)c(C#N)c(-c3ccccc3O)c12 [Compound 30, 4-(2-hydroxyphenyl)-3-methyl-1-phenyl-6-[4-(trifluoromethyl)phenyl]-1H-pyrazolo[3,4-b]pyridine-5-carbonitrile] | 254 to 256 |  | 
CCc1ccc(-c2nc3c(c(C)nn3-c3ccccc3)c(-c3ccccc3C#N)c2C#N)cc1 [Compound 7, 4-(2-Cyanophenyl)-6-(4-ethylphenyl)-3-methyl-1-phenyl-1H-pyrazolo[3,4-b]pyridine-5-carbonitrile] | 201 to 203 |  | 
CCc1ccc(-c2nc3c(c(C)nn3-c3ccccc3)c(-c3ccccc3OC)c2C#N)cc1 [Compound 16, 6-(4-Ethylphenyl)-4-(2-methoxyphenyl)-3-methyl-1-phenyl-1H-pyrazolo[3,4-b]pyridine-5-carbonitrile] | 196 to 198 |  | 
C[C@H]1[C@H](OC(=O)CCC(=O)O)O[C@@H]2O[C@@]3(C)CC[C@H]4[C@H](C)CC[C@@H]1[C@@]24OO3 [Artesunate] |  | 100 | % Survival (24 h) [1]: 17.50 ± 3.68%; % Survival (48 h) [1]: 6.44 ± 0.51%
Cc1nn(-c2ccccc2)c2nc(-c3ccc([N+](=O)[O-])cc3)c(C#N)c(-c3ccccc3O)c12 [Compound 35, 4-(2-hydroxyphenyl)-3-methyl-6-(4-nitrophenyl)-1-phenyl-1H-pyrazolo[3,4-b]pyridine-5-carbonitrile] | 257 to 258 |  | 
CCc1ccc(-c2nc3c(c(C)nn3-c3ccccc3)c(-c3ccccc3Cl)c2C#N)cc1 [Compound 10, 4-(2-Chlorophenyl)-6-(4-ethylphenyl)-3-methyl-1-phenyl-1H-pyrazolo[3,4-b]pyridine-5-carbonitrile] |  | 100 | EC50 (HepG2-A16-CD81EGFP cells): > 50 µM; potency against the liver stage of the parasite [3]: sub-micromolar potency; EC50 [2]: > 25 µM; killing profile [1]: slow killing profile

Reference: patent US11578071B2, “Preparation of pyrazolo[3,4-B]pyridines as antimalarials” (University of Kentucky Research Foundation, priority 2019, dated 2023)
